Experimental data taken from patent US9921163B2, “Method and device for detecting analytes” (IMEC VZW, priority 2013, dated 2018).

Assay: SERS monitoring of boronic acid derivative binding to diol-modified SERS substrate (flow cell)
Text: During the experiments, one type of gold nanostructured SERS substrates were applied. Hereto, a bare SiO2 substrate was cleaned prior to the deposition of polystyrene beads with a diameter of 100 nm (obtained from Thermo Fisher Scientific). Due to electrostatic forces, the nanoparticles form a closed-packed layer on the SiO2 substrate. Then, the substrate was carefully rinsed with H2O. Afterwards, a thin layer of Au (˜50 nm) was deposited onto the polystyrene-coated SiO2 substrate using sputter deposition. The as such obtained SERS substrates were cleaned with an aceton-H2O mixture and dried with a stream of N2. Additionally, the samples were cleaned using UV-O3 treatment for 15 min prior to the experiments.
The SERS substrates were immerged into a solution containing 1 mM thiolated glucose for 3 days at room temperature in the dark (i.e. 1-Thio-β-D-glucose sodium salt dihydrate obtained from Toronto Research Chemicals). […]
The SERS substrates functionalized with the thiolated glucose molecules were mounted into a home-made flow cell connected to a peristaltic pump system. […] The corresponding Raman signal was monitored using a Raman setup of LabRAM. […] FIG. 5 represents the SERS intensity monitored at 1075±1 cm^−1 using a time interval of 25 s. […] The response was also measured in real time as represented in FIG. 8. […]

Structure (SMILES): OB(O)c1ccccc1 [PBA, Phenyl boronic acid]
- SERS intensity at 1075±1 cm^−1 (PBA binding to immobilized thiolated glucose) (1 mM PBA in carbonate buffer, 785 nm, 0.5 mW, 25 s interval): an increase of the signal is obtained over time
- SERS response of PBA interacting with immobilized thiolated glucose in presence of human serum albumin (human serum albumin 2000 mg/dl in carbonate mixed 1/1 with 1 mM PBA): a clear SERS response
